Experimental data as given in ChEMBL document CHEMBL1201862, “PubChem BioAssay data set” (2004).
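Method: 48-hour compound exposure of cells in 96-well plates, five concentrations, linear interpolation of endpoints. GI50 is the concentration that inhibits growth by half.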 Activity calls are given as the source filed them. Rule as the data show it: active = GI50 up to about 1.1 µM and inactive = higher.

Columns and labels:
Test in all cases: growth of human tumour cells (NCI), 48 h
MDA-MB-231 = test system: MDA-MB-231
HCC 2998 = test system: HCC 2998
HT-29 = test system: HT-29
SNB-75 = test system: SNB-75
RXF 393 = test system: RXF 393
PC-3 = test system: PC-3
SNB-19 = test system: SNB-19
MDA-MB-435 = test system: MDA-MB-435
HL-60 = test system: HL-60
SF-539 = test system: SF-539
ACHN = test system: ACHN
EKVX = test system: EKVX
LOX IMVI = test system: LOX IMVI
KM12 = test system: KM12
786-0 = test system: 786-0
SK-MEL-5 = test system: SK-MEL-5
Malme-3M = test system: Malme-3M
DLD-1 = test system: DLD-1
DMS-273 = test system: DMS-273

SMILES	GI50 (MDA-MB-231)	GI50 (HCC 2998)	GI50 (HT-29)	GI50 (SNB-75)	GI50 (RXF 393)	GI50 (PC-3)	GI50 (SNB-19)	GI50 (MDA-MB-435)	GI50 (HL-60)	GI50 (SF-539)	GI50 (ACHN)	GI50 (EKVX)	GI50 (LOX IMVI)	GI50 (KM12)	GI50 (786-0)	GI50 (SK-MEL-5)	GI50 (Malme-3M)	GI50 (DLD-1)	GI50 (DMS-273)
Cc1cccc(C2NC(=O)c3ccccc3N2)c1 (stereo not given)	25.8 µM (inactive)	6.64 µM (inactive)	2.75 µM (inactive)	4.5 µM (inactive)	4.44 µM (inactive)	3.95 µM (inactive)	11 µM (inactive)	0.399 µM (active)	0.802 µM (active)	2.33 µM (inactive)	12.9 µM (inactive)	7.76 µM (inactive)	> 27 µM (inactive)	3.21 µM (inactive)	4.55 µM (inactive)	3.38 µM (inactive)	17.7 µM (inactive)	–	–
C=C(NC(=O)C(=C)NC(=O)c1csc(C2=NC3c4csc(n4)C4NC(=O)c5csc(n5)C(C(C)(O)C(C)O)NC(=O)C5CSC(=N5)/C(=C/C)NC(=O)C(C(C)O)NC(=O)c5csc(n5)C3(CC2)NC(=O)C(C)NC(=O)C(=C)NC(=O)C(=C)NC(=O)C(C(C)C)NC2C=Cc3c(C(C)O)cc(nc3C2O)C(=O)OC4C)n1)C(N)=O (stereo not given)	0.815 µM (active)	16.1 µM (inactive)	1.32 µM (inactive)	> 30.2 µM (inactive)	0.708 µM (active)	6.89 µM (inactive)	33 µM (inactive)	0.743 µM (active)	2.24 µM (inactive)	0.34 µM (active)	2.59 µM (inactive)	3.92 µM (inactive)	0.357 µM (active)	2.66 µM (inactive)	1.29 µM (inactive)	1.29 µM (inactive)	0.239 µM (active)	–	–
O=C1CC(/C=C/c2ccco2)=C(O)C1=O	17.7 µM (inactive)	17.9 µM (inactive)	11.7 µM (inactive)	16 µM (inactive)	9.59 µM (inactive)	10.2 µM (inactive)	14.8 µM (inactive)	16.4 µM (inactive)	33.7 µM (inactive)	13.9 µM (inactive)	15.9 µM (inactive)	15.7 µM (inactive)	12.8 µM (inactive)	13.8 µM (inactive)	–	13.7 µM (inactive)	11.6 µM (inactive)	–	–
N=C(N)NCCCC(Nc1c2ccccc2[n+]([O-])c2ccccc12)C(=O)O (stereo not given)	–	27.2 µM (inactive)	–	34.8 µM (inactive)	–	–	64 µM (inactive)	–	14.8 µM (inactive)	–	23.1 µM (inactive)	96.6 µM (inactive)	37.3 µM (inactive)	68.4 µM (inactive)	67.5 µM (inactive)	22.6 µM (inactive)	39.4 µM (inactive)	28.4 µM (inactive)	40.5 µM (inactive)
CCOC(=O)NC(C(F)(F)F)(C(F)(F)F)P(=O)(OC(C)C)OC(C)C	> 100 µM (inactive)	> 100 µM (inactive)	> 100 µM (inactive)	> 100 µM (inactive)	> 100 µM (inactive)	> 100 µM (inactive)	> 100 µM (inactive)	> 100 µM (inactive)	> 100 µM (inactive)	> 100 µM (inactive)	> 100 µM (inactive)	> 100 µM (inactive)	> 100 µM (inactive)	> 100 µM (inactive)	> 100 µM (inactive)	> 100 µM (inactive)	> 100 µM (inactive)	–	–
NC1(c2cc3ccccc3s2)CCCC1	83.8 µM (inactive)	21.2 µM (inactive)	32.9 µM (inactive)	67.9 µM (inactive)	43.8 µM (inactive)	32 µM (inactive)	> 100 µM (inactive)	41 µM (inactive)	18.3 µM (inactive)	18.5 µM (inactive)	86.5 µM (inactive)	> 100 µM (inactive)	36.5 µM (inactive)	43.9 µM (inactive)	54.2 µM (inactive)	24.1 µM (inactive)	36.9 µM (inactive)	–	–
O=C1C(Cl)C(c2cc3cc(Br)ccc3nc2Cl)N1c1c(Cl)cccc1Cl (stereo not given)	19.3 µM (inactive)	23.8 µM (inactive)	> 25 µM (inactive)	> 25 µM (inactive)	9.91 µM (inactive)	20 µM (inactive)	> 25 µM (inactive)	8.67 µM (inactive)	8.24 µM (inactive)	5.27 µM (inactive)	15.9 µM (inactive)	6.32 µM (inactive)	3.66 µM (inactive)	> 25 µM (inactive)	12.4 µM (inactive)	12.5 µM (inactive)	> 25 µM (inactive)	–	–
Nc1nc(Cl)c2ncn(Cc3ccc(CCl)cc3)c2n1	13.1 µM (inactive)	0.497 µM (active)	9.73 µM (inactive)	23.1 µM (inactive)	1.3 µM (inactive)	7.45 µM (inactive)	6.78 µM (inactive)	16.6 µM (inactive)	6.81 µM (inactive)	3.13 µM (inactive)	9.62 µM (inactive)	2.58 µM (inactive)	5.41 µM (inactive)	8.07 µM (inactive)	5.31 µM (inactive)	15.3 µM (inactive)	11.3 µM (inactive)	–	–
N#Cc1c(C#N)c(SSc2c(C#N)c(C#N)c(N)n2-c2ccc(F)cc2)n(-c2ccc(F)cc2)c1N	19.6 µM (inactive)	21.8 µM (inactive)	20.5 µM (inactive)	5.77 µM (inactive)	3.01 µM (inactive)	17.9 µM (inactive)	21.6 µM (inactive)	8.11 µM (inactive)	2 µM (inactive)	19.2 µM (inactive)	3.66 µM (inactive)	2.2 µM (inactive)	26.4 µM (inactive)	23.2 µM (inactive)	1.79 µM (inactive)	17.4 µM (inactive)	1.87 µM (inactive)	–	–
Cn1c(=O)sc2cc(C(=S)N3CCOCC3)ccc21	> 100 µM (inactive)	> 100 µM (inactive)	> 79.3 µM (inactive)	> 34 µM (inactive)	> 100 µM (inactive)	> 100 µM (inactive)	> 100 µM (inactive)	> 100 µM (inactive)	24.7 µM (inactive)	> 100 µM (inactive)	> 100 µM (inactive)	> 28.8 µM (inactive)	> 85.7 µM (inactive)	> 100 µM (inactive)	> 100 µM (inactive)	> 100 µM (inactive)	3.48 µM (inactive)	–	–
Nc1cc(Cl)cc2cc(Cl)cnc12	> 100 µM (inactive)	> 100 µM (inactive)	> 100 µM (inactive)	40.3 µM (inactive)	> 100 µM (inactive)	72.3 µM (inactive)	> 100 µM (inactive)	> 100 µM (inactive)	43.1 µM (inactive)	> 100 µM (inactive)	> 100 µM (inactive)	39.9 µM (inactive)	> 100 µM (inactive)	> 100 µM (inactive)	> 100 µM (inactive)	> 100 µM (inactive)	> 100 µM (inactive)	–	–
Cc1ccc(C(=O)CC2=Nc3nnc(CCCCCCCc4nnc5n4C(=O)C(CC(=O)c4ccc(C)cc4)=N5)n3C2=O)cc1	–	> 100 µM (inactive)	> 100 µM (inactive)	24.2 µM (inactive)	> 100 µM (inactive)	–	> 100 µM (inactive)	–	> 100 µM (inactive)	> 100 µM (inactive)	> 100 µM (inactive)	> 100 µM (inactive)	> 100 µM (inactive)	> 100 µM (inactive)	> 100 µM (inactive)	> 100 µM (inactive)	> 100 µM (inactive)	> 100 µM (inactive)	–
N#CC1(C#N)C2=C(CCCC2)NC(c2ccc(Br)cc2)C1(C#N)C#N (stereo not given)	11.5 µM (inactive)	20.5 µM (inactive)	2.55 µM (inactive)	15.7 µM (inactive)	2.24 µM (inactive)	13.7 µM (inactive)	16.5 µM (inactive)	3.68 µM (inactive)	0.286 µM (active)	14.2 µM (inactive)	1.77 µM (inactive)	12.4 µM (inactive)	2.11 µM (inactive)	15.1 µM (inactive)	1.79 µM (inactive)	15.5 µM (inactive)	1.16 µM (inactive)	–	–
COc1ccc([C@H]2CC(=O)C[C@H](c3ccc(OC)cc3OC)C23C(=O)c2ccccc2C3=O)c(OC)c1	> 100 µM (inactive)	> 100 µM (inactive)	> 100 µM (inactive)	26.9 µM (inactive)	> 100 µM (inactive)	> 100 µM (inactive)	> 100 µM (inactive)	> 100 µM (inactive)	> 100 µM (inactive)	> 100 µM (inactive)	> 100 µM (inactive)	> 100 µM (inactive)	65 µM (inactive)	> 100 µM (inactive)	> 100 µM (inactive)	68.1 µM (inactive)	> 100 µM (inactive)	–	–
OC(c1nc2ccccc2s1)(C(F)(F)F)C(F)(F)F	> 100 µM (inactive)	> 100 µM (inactive)	> 100 µM (inactive)	> 100 µM (inactive)	> 100 µM (inactive)	> 100 µM (inactive)	> 100 µM (inactive)	> 100 µM (inactive)	> 100 µM (inactive)	> 100 µM (inactive)	> 100 µM (inactive)	> 100 µM (inactive)	> 100 µM (inactive)	> 100 µM (inactive)	> 100 µM (inactive)	> 100 µM (inactive)	> 100 µM (inactive)	–	–
CC(=O)O[C@@H]1C(C2CCCCC2)C=[N+]([O-])O[C@@H]1OC1CCCC1(c1ccccc1)c1ccccc1 (stereo not given in full)	8.45 µM (inactive)	8.57 µM (inactive)	2.09 µM (inactive)	3.85 µM (inactive)	2.58 µM (inactive)	9.59 µM (inactive)	16.5 µM (inactive)	3.06 µM (inactive)	1.6 µM (inactive)	3.94 µM (inactive)	2.21 µM (inactive)	15.7 µM (inactive)	1.94 µM (inactive)	8.04 µM (inactive)	3.76 µM (inactive)	14.3 µM (inactive)	2.99 µM (inactive)	–	–
